Experimental data published in PMC6614837 (Nucleic Acids Research, 2019).
Values joined by “and” are separate entries in the source; they are usually repeats but may differ in a detail not shown here. Identical values can stand only once. Counter-ions that a name gives are not always drawn.

Columns and labels:
[1] = target: T1, RNase P holoenzyme from Thermotoga maritima (Thermotoga maritima, UniProt Q9X1H4); assay: Verification of deconvoluted hits by fluorescence- and gel-based assays with Mh substrate; type: biochemical; conditions: 250 μM (fluorescence) and 500 μM (gel)
T1 construct: made in house
T1 sequence (Q9X1H4 1-117): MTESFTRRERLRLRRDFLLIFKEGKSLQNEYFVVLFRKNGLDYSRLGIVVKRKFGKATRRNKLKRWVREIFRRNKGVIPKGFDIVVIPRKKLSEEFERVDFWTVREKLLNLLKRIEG
Method: For gel-based activity assays, reactions were prepared as described in the previous section (fluorescence activity assay), incubated for 1–15 min at 37–50°C, then loaded onto a denaturing 7 M urea–20% acrylamide gel in the case of the Mh substrate or 19% acrylamide (40% acrylamide/bisacrylamide 38.5:1.5) for the bipartite pre-tRNA substrate. The activity conditions for the gel reported in Figure 3A, to monitor the cleavage of the holoenzyme and P RNA, were under 100 mM AmOAc and 10 mM MgCl2. The gels (13 × 16 × 0.15 cm) were electrophoresed at 20 V/cm for 2–3 h. UV shadowing or ethidium bromide staining was used to visualize RNA cleavage. Detection of minihelix fluorescence was achieved without staining using a UV lamp with excitation at ∼254 nm.
Screening was performed with the Spectrum Collection (MicroSource Discovery Systems, Inc), which comprises 2560 compounds, each dissolved in DMSO at 10 mM. For our initial screening, compounds from this collection were tested in cocktails; eight compounds were tested per well in 384-well format. The final concentration of each compound in the cocktail was 1.25 mM. For the activity assay, reactions were set up in a total volume of 20 μl (13.5 μl of activity buffer, 1.5 μl of fluorescent Mh at 3.6 μM, 3 μl of DMSO or cocktail). […] The control wells included for each experiment series were: (i) reaction with twice (3 μl) the fluorescent Mh amount to avoid a signal saturation for the rest of the wells, (ii) two reactions with 10% DMSO (no cocktail), (iii) Mh substrate only, with no ribozyme, (iv) reaction with 100 mM CaCl2, which it is used as a negative control as it competes with MgCl2 (EDTA was not used because metal ions are essential to maintaining the structure of P RNA ([41])). The reaction was initiated by adding 2 μl of holoenzyme at 333 nM and monitored as described above. Each round of experiments contained twenty different cocktails corresponding to one row of a 384-well plate (Supplementary Figures S6 and S24). […] At this stage, each compound from the inhibitory cocktails was tested at a final concentration of 1 mM (2 μl of the 10 mM stock). We performed a gel-based assay for the nine selected compounds to qualitatively verify the results obtained by the fluorescence assay (Supplementary Figure S9). After deconvolution, each of the final four potential positive compounds was purchased individually from a different provider (Sigma-Aldrich) and tested inhibition using the T. maritima Mh, pre-tRNA and bipartite pre-tRNA substrates (Figure 2 and Supplementary Figures S10–S12 and S14).
Supplementary Figure 9. Consistent results between fluorescence- and gel-based assays. (A) Plots of fluorescent kinetic assays performed in standard conditions in the presence of the different hits at a concentration of 250 µM (four-fold lower concentration as compared to Supplementary Figure 8). (B) End-point assays of the RNase P holoenzyme from Thermotoga maritima in the presence of the non-fluorescent minihelix substrate and the different inhibitor hits at 500 µM, as assessed by 20% urea-PAGE.
The holoenzyme at 0.5 µM was preincubated at 37° C for 30 minutes in the presence of the individual compounds, centrifuged for 15 minutes at 12000g and incubated with the Mh substrate at 18 µM at 37 °C for 15 minutes. At this stage, iodoquinol was the only compound whose behavior was not corroborated in both assays (panels A and B). […]
experiments reported in this Figure. […] Alexidine […]

[2] = target: T1, RNase P holoenzyme from Thermotoga maritima; assay: Real-time fluorescence-based (FRET) RNase P activity assay with minihelix (Mh) substrate; type: biochemical; conditions: 100 mM MgCl2
Method: The reconstitution of the RNase P holoenzyme was performed as described in ([40],[19]). This protocol produces a homogeneous and functional ribozyme that can be crystallized by mixing P RNA and P protein in a 1:1.1 molar ratio in 1× TH buffer (33 mM Tris–HCl, 66 mM HEPES, pH 7.4) and 400 mM ammonium acetate (AmOAc). The mixture was heated to 95°C for 2 min in a water bath, then chilled on ice for 2 min, after which MgCl2 was added to a final concentration of 100 mM. […] This higher concentration was used in all experiments described herein. The holoenzyme was further incubated at 50°C for 10 min and 37°C for 40 min. The final concentration of holoenzyme was 333 nM (35.6 μg/ml of P RNA and 4.7 μg/ml of P protein).
The minihelix (Mh) substrate (Figure 1A) was adopted from a previously characterized RNase P substrate, pMini3bpUG ([32],[33]) and coupled to either Black Hole Quencher 1 (BHQ1) or Black Hole Quencher 2 (BHQ2) at the 5′-end and Alexa Fluor 488 at the 3′-end. This probe was purchased either from Sigma-Aldrich or Integrated DNA Technologies (IDT). A requested scale of […] yielded between 6.3 and 20 nmol (57.5 to 181 μg, enough for 1300–4000 reactions depending on the experimental substrate concentration). Before use, the minihelix was diluted from a 100 μM stock (dissolved in water) to 3.6 μM in activity buffer H (33 mM Tris–HCl, 66 mM HEPES, pH 7.4, 400 mM AmOAc and 100 mM MgCl2).
Reactions were performed in a total volume of 20 μl. Pipetting was done by hand using multichannel pipettes. First, an 18 μl reaction mixture containing 16.5 μl of activity buffer (H for Mh or L supplemented with 10% PEG 200 for bipartite pre-tRNA) and 270 nM (Mh) or 135 nM (bipartite pre-tRNA) (1.5 or 0.7 μl of the 3.6 μM stock) of the fluorescent substrate probe was pre-incubated on ice for at least 5 m in a black polystyrene 384-well microtiter microplate with a flat transparent bottom (Corning ref 3540). The holoenzyme was then added at a final concentration of 33 nM (2 μl of a 333 nM stock) in 1× TH buffer and mixed. Kinetic activity was monitored in a Synergy MX Multimode Detector (BioTek) at 37°C with rapid agitation. At least 20 readings were taken per well every 15 s. The probe was excited at 485 nm, and its emission was monitored at 535 nm with an integration time of 1 s. From the plots of relative fluorescent units (RFU) versus time, linear regression was used to determine the slopes in the linear portion of the curves, using at least 12 data points to obtain initial velocities. Non-linear fitting to obtain the Michaelis–Menten parameters was performed using GraphPad Prism® 6.01 software.
Supplementary Figure 3. FRET assays of RNase P with the fluorescent substrate are reproducible. (A) Representative plots of kinetic assays performed in a single run. The standard assay (SA), (+), was performed at 37° C in a total volume of 20 µL and contained RNase P holoenzyme at 33 nM, substrate minihelix (Mh) at 270 nM, 10% DMSO and activity buffer (AB).
The negative control assay (-) contained 100 mM CaCl2 in place of MgCl2. Ten to twelve wells were monitored simultaneously in a typical assay. (B) Zoomed view of the linear region of the kinetic assays shown in panel A. Fluorescence readings were performed every 15-20 seconds.
Linear regression calculations were done using the GraphPad Prism 7 software. (C) The coefficient Z’-factor (1) was used as an indicator of reproducibility and was calculated based on the relative fluorescence units (RFU) in the plateau phase (taken at 20 minutes). The Z’-factor has a […]
presented in this work were either measured in triplicate or confirmed in subsequent assays. (D) […]
assay is robust. The IC50 values reported in Figures 1C and 2 were calculated according to this kinetic parameter. There is a negative drift in fluorescence in the case of the negative control.
However, it should be noted that the mean value of it (-279) is much smaller than the signal of the […]
positive control (3397). […]

[3] = target: minihelix (Mh); assay: Biolayer interferometry binding to biotinylated minihelix substrate; conditions: BLI
Method: 3′-Biotinylated minihelix was purchased from Integrated DNA Technologies (IDT) (24-mer RNA sequence, 5′-[…]-3′-Biotin). The biotinylated minihelix was immobilized on Super Streptavidin (SSA) biosensors at a concentration of 10 μM. […] For the titration experiments, 10 μM of 3′-biotinylated minihelix was immobilized for 300 s on Super Streptavidin (SSA) biosensors, followed by a wash step of 100 s and association and dissociation steps of 200 s in the presence of 6 different concentrations of compound ranging from 500 to 15.6 μM. SSA biosensors with no minihelix were used to measure non-specific binding of compounds. All other parameters (buffer, instrument control, analysis) are as described above.
Supplementary Figure 16. Binding assays monitor the interaction of compounds with the minihelix (Mh). Gentian violet and methylene blue bind in a dose-dependent relationship to the artificial minihelix substrate. […]
interaction between the minihelix and (A) gentian violet (KD=8 µM ) and (B) methylene blue A 3′-biotinylated substrate minihelix at 10 µ M was immobilized on super streptavidin (SSA) biosensors for 300 s.
Supplementary Figure 17. pre-tRNA displaces bound purpurin in a dose-response […]
indicating a true competition between purpurin and pre-tRNA binding sites. […]

[4] = target: T2, P protein (Thermotoga maritima, UniProt Q9X1H4); assay: Binding hindrance of the 5′ RNA leader to the P protein (BLI); design: species or system T. maritima; conditions: compound 100 μM, 5′ RNA leader 5 μM
T2 construct: GST (cleaved yes); made in house; host or cells: E. coli BL21(DE3)pLysS
T2 sequence (Q9X1H4 1-117): T1 sequence (Q9X1H4 1-117)
Method: A 5′ RNA leader sequence with 10-bases 5′-GGAAAAAGAU-3′ was purchased from IDT and used at a concentration of 5 μM. This sequence is the same used to obtain the crystal structure of the RNase P holoenzyme ([19]). The His-tagged P protein was immobilized on Ni-NTA biosensors at 0.05 mg/ml (3.4 μM). […] The steps performed on the assay and their periods were: P protein immobilization (400 s), wash (100 s), baseline […] (1000 rpm), compound association (800 s), compound dissociation (200 s) (500 rpm), baseline (100 s), 5′ leader association (200 s), 5′ leader dissociation (200 s) (1000 rpm). The assay was performed at 30°C. The compounds were used at 100 μM throughout. All assay steps were performed in 20 mM HEPES pH 7.4, 100 mM ammonium acetate, 10 mM MgCl2, 5% DMSO.
5 ′ RNA leader. (A) Experimental design of 5′ RNA leader binding hindrance experiments. Figures B-F are based on the analysis region depicted in panel A, where association and dissociation of the 5′ RNA leader to the P protein (TmP) is measured over time. P protein at 3.5 µM was immobilized on Ni-NTA biosensors for 300 s, while compounds were assayed at 100 µM and the […]
binding, in contrast with hematein (E) and purpurin (F).
(1 picture or pasted object on this page, not shown here)

[5] = tested on: 3'-biotinylated minihelix (Mh; pMini3bpUG) (RNA, hairpin) GAUCUGAAUGCGGAAACGCGCCAC; assay: biolayer interferometry; conditions: Mg2+ 10 mM, NH4+ 100 mM (ammonium acetate); 20 mM HEPES pH 7.4, DMSO, 30°C; compound 15.6-500 µM

Structure (SMILES): N=C1C=CC(=C(c2ccc(N)cc2)c2ccc(N)cc2)C=C1 [Pararoseaniline]
- Inhibition of RNase P in fluorescence and gel verification [1]: did not inhibit RNase P

Structure (SMILES): CCCCC(CC)CNC(=N)NC(=N)NCCCCCCNC(=N)NC(=N)NCC(CC)CCCC (stereo not drawn) [alexidine hydrochloride]
- Inhibition of RNase P in fluorescence and gel verification [1]: seems to precipitate the holoenzyme

Structure (SMILES): Cc1cc(O)c2c(c1)C(=O)c1cc(O)cc(O)c1C2=O [emodin]
- Inhibition of RNase P in fluorescence and gel verification [1]: did not inhibit RNase P

Structure (SMILES): Oc1c(I)cc(I)c2cccnc12 [iodoquinol, reference compound]
- Inhibition of RNase P in fluorescence and gel verification [1]: false positive

Structure (SMILES): NC[C@H]1O[C@H](O[C@H]2[C@H](O)[C@@H](O[C@H]3O[C@H](CO)[C@@H](O)[C@H](N)[C@H]3O)[C@H](N)C[C@@H]2N)[C@H](N)[C@@H](O)[C@@H]1O [kanamycin B, reference compound]
- Inhibition of RNase P (Mh fluorescence assay) [2]: did not detect inhibition

Structure (SMILES): CN(C)c1ccc2nc3ccc(=[N+](C)C)cc-3sc2c1 [methylene blue, reference compound]
- IC50 ([2]; fluorescent Mh substrate 270 nM, holoenzyme 33 nM, 10% DMSO, 37°C, 400 mM AmOAc): 110 µM and 109 µM
- Kd ([3]; 3′-biotinylated minihelix 10 μM on SSA biosensors): 35 µM
- Binding to the minihelix substrate ([3]; initial screening at 1 mM and titration): binding signal
- Hindrance of 5′ RNA leader binding to the P protein [4]: did not interfere with RNA leader
- KD [5]: 35 µM

Structure (SMILES): NC[C@@H]1O[C@H](O[C@H]2[C@@H](O)[C@H](O[C@@H]3[C@@H](O)[C@H](N)C[C@H](N)[C@H]3O[C@H]3O[C@H](CN)[C@@H](O)[C@H](O)[C@H]3N)O[C@@H]2CO)[C@H](N)[C@@H](O)[C@@H]1O [neomycin B, reference compound]
- Inhibition of RNase P (Mh fluorescence assay) [2]: did not detect inhibition

Structure (SMILES): O=C(N/N=C/c1ccc([N+](=O)[O-])o1)c1cc([N+](=O)[O-])cc([N+](=O)[O-])c1O [nifursol, reference compound]
- Inhibition of RNase P in fluorescence and gel verification [1]: weak inhibitor
